Tests used:
Assay in all cases: REVEAL Epitope Discovery System in vitro MHC-peptide binding score
HLA-A*02:01 = HLA-A*02:01 (Homo sapiens, UniProt P04439, D140Y/D185E/D98H/E176V/E277Q/G131W/G231S/I119V/I121R/I166T/I218V/L300P/L318F/N151K/N90K/P208A/P217A/Q86G/Q94H/R138H/R169H/T345S); conditions: REVEAL score, positive control peptide set at 100%; greater than 50 = good or high affinity binding
Description: (§1) Actual binding affinities for certain HLA class I alleles (A*02:01, A*03:01. A*11:01, and B*08:01) were assessed in vitro for exemplary overlapping 9 amino acid peptide sequences within a portion of the 26 amino acid junction region spanning the CD28 and 4-1BB junction. Specifically, assessment was of a series of overlapping 9-mer peptides derived from the sequence […] (set forth in SEQ ID NO: 7), which contains a portion of the CD28 transmembrane domain and 4-1BB costimulatory domain spanning the junction between the domains (bond joining the two amino acids noted in underline). In addition, a series of overlapping 9-mer peptides of each of a number of different variants of this portion also were assessed, each variant containing a mutation or mutations in this region as described in Example 2.
(§2) The various 9-mer overlapping peptides were synthesized and their purity tested by MALDI-TOF Mass Spectrometry. The synthetic peptides were then incubated with recombinant MHC molecules to assess binding properties using the REVEAL Epitope Discovery System, which is a high-throughput binding assay that measures the degree to which each peptide is able to stabilize a ternary MHC-peptide complex (ProImmune, Oxford, United Kingdom). Each peptide was separately tested for this ability with respect to each of the HLA class I alleles, normalized to the degree observed for a positive control (known T cell epitope for the relevant allele). The results are reported as a score, in which the binding was normalized to the positive control peptide set at 100%.

HLA-A*03:01 = HLA-A*03:01 (Homo sapiens, UniProt P04439); conditions: positive control peptide set at 100%, greater than 50 = good or high affinity binding
Description: as §1, §2

HLA-A*11:01 = HLA-A*11:01 (Homo sapiens, UniProt P04439, A114D/D185E/E176A/F33Y/L180Q/S129P/T187R); design: key: % binding, normalized to positive control peptide set at 100%; conditions: binding normalized to positive control peptide set at 100%, greater than 50 considered good or high affinity binding
Description: as §1, §2

HLA-B*08:01 = HLA-B*08:01 (Homo sapiens, UniProt P01889, A93T/A95T/D138N/E176V/E187T/K202T/Q94N/R180D/S35A/V36M/Y33D/Y91F); design: key: % binding, normalized to positive control peptide set at 100%; conditions: binding normalized to positive control peptide set at 100%, greater than 50 considered good or high affinity binding
Description: as §1, §2

Row | A*02:01 In Vitro Score (HLA-A*02:01) | A*03:01 In Vitro (HLA-A*03:01) | A*11:01 In Vitro Score (HLA-A*11:01) | B*08:01 In Vitro Score (HLA-B*08:01) | Sequence
1 | 2.20 | 0.50 | 51.80 | 0.20 | AFIIFWVAR [9-mer variant junction peptide, K28A]
2 | 0.30 | 0.30 | 34.90 | 0.30 | AFIIFWVHR [9-mer variant junction peptide, K28H]
3 | 4.50 | 0.30 | 54.00 | 0.30 | AFIIFWVSR [9-mer variant junction peptide, K28S]
4 | 37.30 | 0.00 | 0.90 | 0.20 | FIIFWVHRG [9-mer variant junction peptide, K28H]
5 | – | – | 8.90 | – | FWVARGRKK [9-mer variant junction peptide, K28A]
6 | 9.40 | – | – | 6.30 | FWVKRGLKK [9-mer variant junction peptide, R31L]
7 | 8.70 | – | – | – | FWVKRGNKK [9-mer variant junction peptide, R31N]
8 | 1.00 | 53.70 | 34.90 | 0.00 | IFWVARGRK [9-mer variant junction peptide, K28A]
9 | 7.10 | 37.80 | 36.60 | 0.10 | IFWVHRGRK [9-mer variant junction peptide, K28H]
10 | 13.80 | 22.00 | 69.70 | 2.20 | IFWVKRGAK [9-mer variant junction peptide, R31A]
11 | 2.20 | 9.00 | 30.90 | 3.20 | IFWVKRGHK [9-mer variant junction peptide, R31H]
12 | 2.40 | 26.90 | 61.10 | 58.30 | IFWVKRGLK [9-mer variant junction peptide, R31L]
13 | 3.50 | 8.00 | 45.90 | 0.10 | IFWVKRGNK [9-mer variant junction peptide, R31N]
14 | 2.40 | 10.40 | 47.90 | 1.20 | IFWVKRGSK [9-mer variant junction peptide, R31S]
15 | 11.70 | 17.00 | 61.30 | 0.20 | IFWVQRGAK [9-mer variant junction peptide, K28Q/R31A]
16 | 16.10 | 23.20 | 67.50 | 0.10 | IFWVQRGNK [9-mer variant junction peptide, K28Q/R31N]
17 | 6.10 | 36.70 | 128.50 | 0.00 | IFWVQRGRK [9-mer variant junction peptide, K28Q]
18 | 1.30 | 39.20 | 39.20 | 0.00 | IFWVSRGRK [9-mer variant junction peptide, K28S]
19 | 9.60 | 18.60 | 70.60 | 0.30 | IIFWVARGR [9-mer variant junction peptide, K28A]
